The values below are quoted from earlier work in patent EP4088834A1, “INORGANIC COATED SAND” (Kao Corporation, priority 2020, dated 2021).

For this series the following is noted: 25°C.

For `[O]=[Ca]` [calcium oxide], the solubility in water is 1190 µg/mL.
